According to US11697852B2, “Systems and methods for determining a treatment course of action” (The Regents of the University of Michigan, priority 2013, dated 2023):
“Also recorded” adds a separate entry of the source.

What was measured:
[1] = test system: ESR1 mutations p.Leu536Gln, p.Tyr537Ser, p.Asp538Gly, p.Tyr537Cys, p.Tyr537Asn; assay: ERE-luciferase reporter assay, ESR1 LBD mutants; assay type: cell-based, human; conditions: for inhibition of the 5 LBD mutations of ESR1 (reporter activity): ERE-luciferase, increasing doses with 5 nM β-estradiol for 24 hrs (FIG. 4)
Procedure: (§1) cDNA for the wild type ESR1 was PCR amplified from a breast cell line MCF7 with the introduction of an N-terminal FLAG tag. cDNA encoding the relevant mutations of ESR1 were generated by site-directed mutagenesis (QuikChange, Agilent) and full-length constructs were fully sequenced. All the ESR1 variants were placed in the Lentivial vector pCDH (System Biosciences) for eukaryotic expression.
(§2) For cell transfection experiments, HEK-293T cells were plated at a density of 1−2×10^5 per well (24-well plates) in phenol red-free Dulbecco's modified Eagle's medium (DMEM) containing 10% fetal bovine serum (FBS) and antibiotics. Once cells attached, replaced medium with DMEM containing 10% charcoal-dextran treated FBS (HyClone) and cultured overnight. The next day, cells were transiently co-transfected with ESR1-expression plasmid at 50 ng/well and luciferase reporter constructs at 25 ng per well (SABiosciences) using the FuGene 6 reagent (Promega). The ER-responsive luciferase plasmid encoding the firefly luciferase reporter gene is driven by a minimal CMV promoter and tandem repeats of the estrogen transcriptional response element (ERE). A second plasmid constitutively expressing Renilla luciferase is served as an internal control for normalizing transfection efficiencies (Cignal ERE Reporter, SABiosciences). After transfection for 18 hrs, cells were serum-starved for a few hours before treatment with 13-estradiol or anti-estrogen drugs. Cells were harvested 18 hr post-treatment, and luciferase activity was measured using the Dual-Luciferase Reporter Assay System (Promega). IC50 values were computed using the GraphPad Prizm application to fit a four parameter doseresponse curve.
It was next assessed whether tumor types other than ER positive metastatic hormone-resistant breast cancer also acquire ligand binding mutations in ESR1. The Cancer Genome Atlas Project (TCGA), which has generated whole exome data on 27 tumor types across at least 4000 individual samples was utilized. […] Steroid hormone deprived cells were then exposed to β-estradiol for 24 hours and ER reporter levels assessed.

wild type ESR1 = target: T1, wild type ESR1 (Homo sapiens, UniProt P03372); assay: ERE-luciferase reporter assay, wild type ESR1; assay type: cell-based; conditions: HEK-293T cells co-transfected with ESR1 plasmid 50 ng and ERE-luciferase; in presence of β-estradiol (FIGS. 4, 8, 9, 10)
T1 construct: expressed in transfected cells; host or cells: HEK-293T
T1 sequence (P03372 1-595): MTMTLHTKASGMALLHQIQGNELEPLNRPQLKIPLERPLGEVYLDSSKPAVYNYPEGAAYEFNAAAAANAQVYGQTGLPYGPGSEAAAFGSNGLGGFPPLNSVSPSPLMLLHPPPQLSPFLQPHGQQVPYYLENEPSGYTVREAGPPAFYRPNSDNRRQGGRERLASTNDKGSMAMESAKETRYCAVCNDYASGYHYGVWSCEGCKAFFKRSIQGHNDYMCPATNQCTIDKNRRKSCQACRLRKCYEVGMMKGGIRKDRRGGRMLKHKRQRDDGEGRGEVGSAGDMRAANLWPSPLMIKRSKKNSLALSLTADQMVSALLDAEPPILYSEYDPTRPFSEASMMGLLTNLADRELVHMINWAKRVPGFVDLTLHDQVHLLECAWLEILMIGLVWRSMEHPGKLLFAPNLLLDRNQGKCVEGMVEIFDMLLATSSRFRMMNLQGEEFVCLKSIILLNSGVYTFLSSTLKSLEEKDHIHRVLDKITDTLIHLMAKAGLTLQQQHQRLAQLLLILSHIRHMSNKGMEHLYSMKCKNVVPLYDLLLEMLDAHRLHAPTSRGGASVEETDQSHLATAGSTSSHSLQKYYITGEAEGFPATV
Excerpt: as §1
as §2, with “Once” for “For cell transfection experiments, HEK-293T cells were plated at a density of 1−2×10^5 per well (24-well plates) in phenol red-free Dulbecco's modified Eagle's medium (DMEM) containing 10% fetal bovine serum (FBS) and antibiotics. Once”, “IC50 values were computed using the GraphPad Prizm application to fit a four parameter doseresponse curve.” left out

| Compound | maximal inhibition for all the mutants tested ([1]; ERE-luciferase dose response in competition with 1 nM estradiol (FIGS. 8 and 9)) | inhibition of the 5 LBD mutations of ESR1 (reporter activity) [1] | inhibition of wild-type ER reporter (transactivation) activity (wild type ESR1) |
| --- | --- | --- | --- |
| C[C@]12CC[C@@H]3c4ccc(O)cc4C[C@@H](CCCCCCCCC[S+]([O-])CCCC(F)(F)C(F)(F)F)[C@H]3[C@@H]1CC[C@@H]2O (stereo partly shown) [fulvestrant, Fulvestrant] | greater maximal inhibition than 4-hydroxytamoxifen | in a dose-dependent fashion; also recorded: continue to be responsive | – |
| CC/C(=C(\c1ccccc1)c1ccc(OCCN(C)C)cc1)c1ccccc1 [tamoxifen] | – | in a dose-dependent fashion; also recorded: continue to be responsive | – |
| (Z)-4-Hydroxytamoxifen | – | – | inhibited in a dose-dependent fashion |
